From US20250073184A1, “CANNABIGEROQUINONE COMPOUNDS, COMPOSITIONS INCLUDING SUCH COMPOUNDS, AND USES OF SUCH COMPOUNDS AND COMPOSITIONS” (Juva Life, Inc., priority 2021, published 2025)

What was measured:
[1] = system: PC3 prostate adenocarcenoma cell line; test: PC3 cell line toxicity (Cell titer Glo viability); assay type: cell-based; details: PC3, 72 h
Procedure: (§1) 90 nL DMSO is added to control wells. […] Luminescence was then recorded using Synergy Neo2Multi-mode Reader.
(§2) Culture medium were purchased from ATCC, USA.

[2] = system: HL-60 acute promyelocytic leukemia cell line; test: HL-60 cell line toxicity (Cell titer Glo viability); details: HL-60, 72 h
Procedure: The half maximal inhibition concentration (IC50) for each compound was determined by harvesting cells during the logarithmic growth period and then counting cell number using hemocytometer. […] Then, using a Biomek FX, test articles were serially diluted (10 mM top, 3× dilution intervals) along with a reference inhibitor (1 mM top, 3× dilution intervals) in acoustic grade Labcyte plate. Then, using an acoustic dispenser (Labcyte550), compounds were added as serially diluted to plate with cells: 90 nL of serially diluted compounds per well. 90 nL DMSO is added to control wells. Test plates were incubated for 72 h in the humidified incubator at 37° C. with 5% CO2. 25 μL of reconstituted Cell titer Glo reagent was added to each well. Each test plate was then incubated for 20 min at room temperature. Luminescence was then recorded using Synergy Neo2Multi-mode Reader.
In order to calculate intersect IC50, a dose-response curve was fitted using nonlinear regression model with a sigmoidal dose response.
The formula for calculating surviving rate is shown below, and the intersect IC50 was calculated according to the dose-response curve generated by the software:
The compounds of interest were assessed cell viability in the HL-60 acute promyelocytic leukemia cell line (ATCC® CCL-240). […] Culture medium were purchased from ATCC, USA.

[3] = system: SK-MEL-28 melanoma cell line; test: SK-MEL-28 cell line toxicity (Cell titer Glo viability); assay type: cell-based; details: SK-MEL-28, 72 h
Procedure: as §2
• General cell culture reagents and plastic. • 384-Well Flat white Poly-styrene TC-Treated Microplates (Corning). • 384 well poly-propylene plates (acoustic grade, Labcyte) for compound dilution. • Cell titer Glo luminescent Cell Viability reagent (Cat #G7571, Promega).
as §1

[4] = biological target: T1, cannabinoid receptor 1 (CNR1) (Homo sapiens, UniProt P21554); test: CB1 receptor agonist assay (cAMP Hunter eXpress, CNR1 CHO-K1 cells); assay type: cell-based; details: agonist mode, Forskolin-stimulated cAMP
T1 construct: host or cells: CHO-K1
T1 sequence (P21554 whole entry): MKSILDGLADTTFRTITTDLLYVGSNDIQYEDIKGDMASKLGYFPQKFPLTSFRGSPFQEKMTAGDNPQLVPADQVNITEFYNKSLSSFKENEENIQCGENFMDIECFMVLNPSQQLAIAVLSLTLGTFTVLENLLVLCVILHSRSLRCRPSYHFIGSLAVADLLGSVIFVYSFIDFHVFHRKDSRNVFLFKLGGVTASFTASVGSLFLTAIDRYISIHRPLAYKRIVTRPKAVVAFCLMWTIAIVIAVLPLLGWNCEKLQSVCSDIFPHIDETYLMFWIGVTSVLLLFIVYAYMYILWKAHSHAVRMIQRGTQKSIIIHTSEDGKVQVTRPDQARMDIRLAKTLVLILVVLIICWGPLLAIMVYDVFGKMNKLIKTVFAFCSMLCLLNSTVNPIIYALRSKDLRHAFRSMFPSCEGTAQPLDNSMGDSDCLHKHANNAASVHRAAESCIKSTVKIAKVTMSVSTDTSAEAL
Procedure: (§3) The assays were performed in cAMP Hunter eXpress cells engineered to overexpress naturally Gi/Go-coupled wildtype cannabinoid receptor 1 (CNR1) or cannabinoid receptor 2 (CNR2) in CHO-K1 cell type. In these cells, CB1 and/or […] agonists inhibit production of intracellular cAMP in response to stimulation with Forskolin. cAMP levels are determined using luminogenic detection reagents provided with the Hunter eXpress cAMP detection kit.
(§4) • Assay ready CNR1 CHO-K1 cells were obtained from Eurofins/Discover X, cat #95-0071E2 • Assay ready CNR2 CHO-K1 cells were obtained from Eurofins/Discover X, cat #95-0183E2 • Hunter eXpress cAMP detection kit was also from Discover X. The kit includes all cAMP detection reagents, Forskolin, complete cell plating medium and cell assay buffer.
The Assay-Ready CNR1 CHO-K1 or CNR2 CHO-K1 cells were thawed and re-suspended in pre-warmed Assay Complete plating medium and inoculated into 96 well plate at a density of 30,000 cells in 100 μL. The plates with cells were incubated for 24 h at 37° C. in 5% CO2. […] The cells were stimulated with the Forskolin/compound buffer for 30 min. […] The plate was read on Biotek Synergy Neo2 reader in luminescent mode. […] Relative luminescence units (RLUs) were plotted against compound concentration to determine apparent EC50 values of the agonist compounds.

[5] = biological target: T2, cannabinoid receptor 2 (CNR2) (Homo sapiens, UniProt P34972); test: CB2 receptor agonist assay (cAMP Hunter eXpress, CNR2 CHO-K1 cells); assay type: cell-based
T2 construct: host or cells: CHO-K1
T2 sequence (P34972 whole entry): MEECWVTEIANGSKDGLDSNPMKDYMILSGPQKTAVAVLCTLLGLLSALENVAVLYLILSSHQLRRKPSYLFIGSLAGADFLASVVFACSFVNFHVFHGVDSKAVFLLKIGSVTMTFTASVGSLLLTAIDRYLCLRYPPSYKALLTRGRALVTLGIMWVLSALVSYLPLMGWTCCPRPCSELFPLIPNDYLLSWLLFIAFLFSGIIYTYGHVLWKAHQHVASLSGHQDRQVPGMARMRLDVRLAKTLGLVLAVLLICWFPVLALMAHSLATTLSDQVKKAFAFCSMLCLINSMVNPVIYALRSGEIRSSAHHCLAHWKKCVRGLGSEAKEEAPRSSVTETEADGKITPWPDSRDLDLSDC
Procedure: as §3, §4
The Assay-Ready CNR1 CHO-K1 or CNR2 CHO-K1 cells were thawed and re-suspended in pre-warmed Assay Complete plating medium and inoculated into 96 well plate at a density of 30,000 cells in 100 μL. The plates with cells were incubated for 24 h at 37° C. in 5% CO2. […] The cells were stimulated with the Forskolin/compound buffer for 30 min. After stimulation, 15 μL of cAMP antibody reagent and 60 μL of cAMP working detection solution were added to the cells and, the cells were incubated for 1 h at room temperature. After 1 h incubation, 60 μL of cAMP Solution A was added to the wells and the plate was incubated for 3 h at room temperature. The plate was read on Biotek Synergy Neo2 reader in luminescent mode. CB1 and CB2 agonists should reduce cAMP production in response to Forskilin. Relative luminescence units (RLUs) were plotted against compound concentration to determine apparent EC50 values of the agonist compounds.

In the case of `CN[C@@H]1C[C@H]2O[C@@](C)([C@@H]1OC)n1c3ccccc3c3c4c(c5c6ccccc6n2c5c31)C(=O)NC4` [Staurosporine, staurosporine, reference compound], the IC50 ([1]; Homo sapiens, PC-3) is reported as about 4 nM, the “Cell Viability (%)” value ([1]; 0.0015 uM) is reported as 67.1% and the “Cell Viability (%)” value ([1]; 0.0046 uM) is reported as 43.2%. The “Cell Viability (%)” value ([1]; 0.014 uM) was 34.5%, the “Cell Viability (%)” value ([1]; 0.041 uM) was 12.7% and the “Cell Viability (%)” value ([1]; 0.12 uM) was 10.3%. The “Cell Viability (%)” value ([1]; 0.37 uM) was 9.5%, the “Cell Viability (%)” value ([1]; 1.1 uM) was 8.4% and the “Cell Viability (%)” value ([1]; 3.3 uM) was 8.1%. For the same compound, the “Cell Viability (%)” value ([1]; 10 uM) was 6.8%, the “Cell Viability (%)” value ([1]; 30 uM) was 7.1% and the “Cell Viability (%)” value ([2]; 0.014 uM) was 66.6%. The “Cell Viability (%)” value ([2]; 0.041 uM) was 36.3%, the “Cell Viability (%)” value ([2]; 0.12 uM) was 27.7% and the “Cell Viability (%)” value ([2]; 0.37 uM) was 18.7%. The “Cell Viability (%)” value ([2]; 1.1 uM) was 13.9%, the “Cell Viability (%)” value ([2]; 3.3 uM) was 11.7% and the “Cell Viability (%)” value ([2]; 10 uM) was 10.4%. The “Cell Viability (%)” value ([2]; 30 uM) was 9.6%, the IC50 ([3]; Homo sapiens) was about 210 nM and the “Cell Viability (%)” value ([3]; 0.041 uM) was 70.0%. For the same compound, the “Cell Viability (%)” value ([3]; 0.12 uM) was 53.9%, the “Cell Viability (%)” value ([3]; 0.37 uM) was 41.1% and the “Cell Viability (%)” value ([3]; 1.1 uM) was 33.0%. The “Cell Viability (%)” value ([3]; 3.3 uM) was 17.3%, the “Cell Viability (%)” value ([3]; 10 uM) was 8.55% and the “Cell Viability (%)” value ([3]; 30 uM) was 8.85%.
In the case of `CCCCCc1cc(O)c2c(c1)OC(C)(C)C1CCC(CO)=CC21` (stereo not drawn) [11-hydroxy-THC], the IC50 [4] is reported as 1 nM, the IC50 ([5]; agonist mode, Forskolin-stimulated cAMP, CNR2 CHO-K1 cells) is reported as 51 nM and the “Selectivity for CB2 over CB1 (fold)” value ([5]; ratio of agonist IC50 values) is reported as 0.02 fold.
